The text below walks through data of patent publication US5834461A, “Tricyclic benzazepine vasopressin antagonists” (American Cyanamid Company, priority 1997, dated 1998).

Assay [1] has as its system vasopressin V1. Briefly: Vasopressin V1 Antagonist Activity in Conscious Rats (vasopressin vasopressor response). Type of assay: in vivo, rat (spontaneously hypertensive rats). Further details: Average Change: unit not given here. A digest of the protocol:
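Conscious rats had the ventral caudal tail artery cannulated into the lower abdominal aorta under local procaine anesthesia, plus a caudal vein cannula for intravenous dosing. Pulsatile blood pressure was recorded via a Statham P23Db transducer. Vasopressor responses to vasopressin injections were measured before and after compound dosing, with percent antagonism calculated relative to the pre-drug response taken as 100%.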

For assay [2], the target named is T1, oxytocin receptors (rat uterus membranes) (Rattus norvegicus, UniProt P70536).
T1 construct: The resulting pellet containing the oxytocin receptors is resuspended; from tissue; host or cells: uterus membranes of DES-treated female Sprague-Dawley rats
T1 sequence (P70536 1-388): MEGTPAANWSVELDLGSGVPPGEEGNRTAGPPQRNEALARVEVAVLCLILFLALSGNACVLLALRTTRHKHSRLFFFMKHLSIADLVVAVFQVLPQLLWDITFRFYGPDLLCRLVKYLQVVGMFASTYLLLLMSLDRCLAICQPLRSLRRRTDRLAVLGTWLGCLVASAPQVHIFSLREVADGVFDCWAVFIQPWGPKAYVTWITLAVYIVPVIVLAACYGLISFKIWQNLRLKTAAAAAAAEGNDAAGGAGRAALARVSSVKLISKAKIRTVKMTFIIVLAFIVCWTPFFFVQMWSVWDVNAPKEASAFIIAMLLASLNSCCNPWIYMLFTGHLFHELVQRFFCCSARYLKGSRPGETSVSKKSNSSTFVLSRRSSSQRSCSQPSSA
Briefly: Oxytocin Receptor Binding. Set-up: species or system female Sprague-Dawley rats. The procedure, abridged:
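Uterine membranes from DES-primed female Sprague-Dawley rats (0.3 mg/kg i.m., 18 h) were incubated with 1.0 nM [3H]oxytocin in 50 mM Tris.HCl pH 7.4, 5 mM MgCl2 plus protease inhibitors, 60 min at 22 °C. Bound ligand was separated by filtration; nonspecific binding was defined with 1.0 uM oxytocin, and IC50 was taken from displacement curves.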

For assay [3], the system named is vasopressin V2. Briefly: Vasopressin V2 Antagonist Activity in Conscious Hydrated Rats (diuretic effect). The settings on record: AVP 0.4 μg/kg i.p. The format is in vivo, normal Sprague-Dawley rats. A digest of the protocol:
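Conscious rats were dosed orally at 0.1–100 mg/kg, and AVP 0.4 μg/kg i.p. in peanut oil followed 1 h later. Urine volume, osmolality and Na/K/Cl were compared against AVP-treated controls, with non-AVP rats as water-loading controls.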

Setting [4] is: 10 mg/kg i.v., VAS 0.01 i.u./kg, 30 min.
Where [5] appears, read: 10 mg/kg i.v., VAS 0.05 i.u./kg, 30 min.
Where [6] appears, read: 10 mg/kg i.v., VAS 0.1 i.u./kg, 30 min.
Where [7] appears, read: 20 mg/kg i.v., VAS 0.01 i.u./kg, 60 min.
Setting [8] is: 20 mg/kg i.v., VAS 0.01 i.u./kg, 300 min.
The mark [9] stands for this setting: 20 mg/kg i.v., VAS 0.05 i.u./kg, 60 min.
[10] abbreviates: 20 mg/kg i.v., VAS 0.05 i.u./kg, 90 min.
Setting [11] is: 20 mg/kg i.v., VAS 0.05 i.u./kg, 120 min.
[12] abbreviates: 20 mg/kg i.v., VAS 0.05 i.u./kg, 180 min.
The mark [13] stands for this setting: 20 mg/kg i.v., VAS 0.05 i.u./kg, 240 min.
The mark [14] stands for this setting: 20 mg/kg i.v., VAS 0.05 i.u./kg, 300 min.
[15] abbreviates: 20 mg/kg i.v., VAS 0.1 i.u./kg, 60 min.
[16] abbreviates: 20 mg/kg i.v., VAS 0.1 i.u./kg, 90 min.
[17] abbreviates: 20 mg/kg i.v., VAS 0.1 i.u./kg, 120 min.
Setting [18] is: 20 mg/kg i.v., VAS 0.1 i.u./kg, 180 min.
[19] abbreviates: 20 mg/kg i.v., VAS 0.1 i.u./kg, 240 min.
Where [20] appears, read: 20 mg/kg i.v., VAS 0.1 i.u./kg, 300 min.
The mark [21] stands for this setting: 50 mg/kg p.o., VAS 0.01 i.u./kg, 30 min.
[22] abbreviates: 50 mg/kg p.o., VAS 0.01 i.u./kg, 60 min.
The mark [23] stands for this setting: 50 mg/kg p.o., VAS 0.01 i.u./kg, 90 min.
Setting [24] is: 50 mg/kg p.o., VAS 0.01 i.u./kg, 120 min.
[25] abbreviates: 50 mg/kg p.o., VAS 0.01 i.u./kg, 180 min.
[26] abbreviates: 50 mg/kg p.o., VAS 0.01 i.u./kg, 240 min.
Where [27] appears, read: 50 mg/kg p.o., VAS 0.02 i.u./kg, 30 min.
Where [28] appears, read: 50 mg/kg p.o., VAS 0.02 i.u./kg, 60 min.
The mark [29] stands for this setting: 50 mg/kg p.o., VAS 0.02 i.u./kg, 90 min.
Where [30] appears, read: 50 mg/kg p.o., VAS 0.02 i.u./kg, 120 min.
Where [31] appears, read: 50 mg/kg p.o., VAS 0.02 i.u./kg, 180 min.
Setting [32] is: 50 mg/kg p.o., VAS 0.02 i.u./kg, 240 min.

pIC50: −log10 of the molar value.

A word on the Inhibition: it is the change of the read-out against control, counted positive when it falls. One may read the inhibition as the share of the control response that was lost under treatment. Broadly, the pIC50 is −log10 of the IC50, conventionally taken in molar units. As for `Cc1ccccc1C(=O)Nc1ccc(C(=O)N2Cc3ccccc3-c3ccccc32)cc1` [Example 5, 2-Methyl-N-[4-[(5(6H)-phenanthridinyl)carbonyl]phenyl]benzamide], the “Average Change” value in assay [1] (setting [4]) stood at 35; in assay [1] (setting [5]), 30; in assay [1] (setting [6]) it was 35; in assay [1] (setting [7]), 17.5; in assay [1] (setting [8]) it was 30; in assay [1] (setting [9]), 10. Moreover, the “Average Change” value is 10 in assay [1] (setting [10]); 15 in assay [1] (setting [11]); 12.5 in assay [1] (setting [12]); 17.5 in assay [1] (setting [13]); 22.5 in assay [1] (setting [14]); 17.5 in assay [1] (setting [15]). Besides, the “Average Change” value in assay [1] (setting [16]) worked out at 20; in assay [1] (setting [17]), 17.5; in assay [1] (setting [18]) it was 20; in assay [1] (setting [19]), 25; in assay [1] (setting [20]), 30; in assay [1] (setting [21]), 22.5. Also, the “Average Change” value in assay [1] (setting [22]) amounted to 30; in assay [1] (setting [23]), 17.5; in assay [1] (setting [24]), 30; in assay [1] (setting [25]), 20; in assay [1] (setting [26]), 22.5; in assay [1] (setting [27]) it was 35. For the same compound, the “Average Change” value in assay [1] (setting [28]) is given as 35.5; in assay [1] (setting [29]), 32.5; in assay [1] (setting [30]), 40; in assay [1] (setting [31]), 37.5; in assay [1] (setting [32]), 38.5. The Inhibition is given as 22% in assay [1] (setting [4]); -9% in assay [1] (setting [5]); 22% in assay [1] (setting [6]); 61% in assay [1] (setting [7]); 33% in assay [1] (setting [8]); 64% in assay [1] (setting [9]). In addition, the Inhibition in assay [1] (setting [10]) is given as 64%; in assay [1] (setting [11]), 45%; in assay [1] (setting [12]), 55%; in assay [1] (setting [13]), 36%; in assay [1] (setting [14]), 18%; in assay [1] (setting [15]) it was 61%. Moreover, the Inhibition in assay [1] (setting [16]) is recorded as 56%; in assay [1] (setting [17]), 61%; in assay [1] (setting [18]), 56%; in assay [1] (setting [19]), 44%; in assay [1] (setting [20]), 33%; in assay [1] (setting [21]), 10%. The Inhibition is on record as -20% in assay [1] (setting [22]); 30% in assay [1] (setting [23]); -20% in assay [1] (setting [24]); 20% in assay [1] (setting [25]); 10% in assay [1] (setting [26]); 0% in assay [1] (setting [27]). For the same compound, the Inhibition in assay [1] (setting [28]) is given as 7%; in assay [1] (setting [29]) it was 7%; in assay [1] (setting [30]) it was -14%; in assay [1] (setting [31]), -7%; in assay [1] (setting [32]), -10%. In addition, in assay [2], the inhibition at 10 µM worked out at 90%. The same compound had a negative logarithm of the IC50 (pIC50) in assay [2] (first part of Table V) of 5.70. The same compound gave an Osmolality in assay [3] (10 mg/kg orally) of 1137 mOsm/kg. For the same compound, the “Urine Volume” value in assay [3] (10 mg/kg orally) is given as 2 ml/4 hrs.

For the compound `Cc1ccccc1C(=O)Nc1ccc(C(=O)N2Cc3ccccc3Cc3ccccc32)c(Cl)c1` [Example 260, N-[4-[(6,11-Dihydro-5H-dibenz[b,e]azepin-5-yl)-carbonyl]-3-chlorophenyl]-2-methylbenzamide], in assay [1] (30 mg/kg i.v.), the “MAX % Inhibition” value was found to be 79% and the “Time of max % inhibition” value turned out to be 120 min. The compound further showed an inhibition at 10 µM in assay [2] of 44%. In assay [3] (10 mg/kg orally), the Osmolality was 498 ± 25 mOsm/kg and the “Urine Volume” value is recorded as 13.8 ± 2.1 ml/4 hrs.

Turning to `O=C(Nc1ccc(C(=O)N2Cc3ccccc3Cc3ccccc32)cc1)c1cccc(Cl)c1Cl` [Example 253, N-[4-[(6,11-Dihydro-5H-dibenz[b,e]azepin-5-yl)-carbonyl]phenyl]-2,3-dichlorobenzamide], in assay [1] (30 mg/kg i.v.), the “MAX % Inhibition” value was determined as 57% and the “Time of max % inhibition” value was determined as 180 min. The same compound had an inhibition at 10 µM in assay [2] of 77%. In addition, the pIC50 in assay [2] (first part of Table V) was 5.51. In assay [3] (10 mg/kg orally), the Osmolality stood at 837 mOsm/kg and the “Urine Volume” value was 6 ml/4 hrs.

For `COc1cc(C(=O)N2Cc3ccccc3Cc3ccccc32)ccc1NC(=O)c1ccccc1C` [Example 257, N-[4-[(6,11-Dihydro-5H-dibenz[b,e]azepin-5-yl)-carbonyl]-2-methoxyphenyl]-2-methylbenzamide], in assay [1] (10 mg/kg i.v.), the “MAX % Inhibition” value was 71% and the “Time of max % inhibition” value was 60 min. 10 µM produced 97% inhibition in assay [2]. For the same compound, in assay [2] (first part of Table V), the negative-log IC50 (pIC50) was 6.72. Further, in assay [3] (10 mg/kg orally), the Osmolality is 434 mOsm/kg and the “Urine Volume” value is recorded as 11.8 ml/4 hrs.

As for `Cc1ccccc1C(=O)Nc1ccc(C(=O)N2CCc3cn(C)nc3-c3ccccc32)cc1` [Example 379, N-[4-[(4,5-Dihydro-2-methylpyrazolo[4,3-d][1]-benzazepin-6(2H)-yl)carbonyl]phenyl]-2-methylbenzamide], in assay [1] (10 mg/kg i.v.), the “MAX % Inhibition” value was 75% and the “Time of max % inhibition” value came out at 300 min. The inhibition at 10 µM in assay [2] is 96%. The pIC50 in assay [2] (first part of Table V) was 6.09. Further, in assay [3] (20 mg/kg orally), the Osmolality is 483 mOsm/kg and the “Urine Volume” value turned out to be 7 ml/4 hrs.

In the case of `Cc1ccccc1C(=O)N(CN(C)C)c1ccc(C(=O)N2Cc3ccccc3Cc3ccccc32)cc1` [Example 267, N-[4-[(6,11-Dihydro-5H-dibenz[b,e]azepin-5-yl)-carbonyl]phenyl]-N-[(dimethylamino)methyl]-2-methylbenzamide], in assay [1] (10 mg/kg i.v.), the “MAX % Inhibition” value worked out at 74% and the “Time of max % inhibition” value is 120 min. The compound also returned an inhibition at 10 µM in assay [2] of 89%. The same compound showed a pIC50 in assay [2] (first part of Table V) of 5.96. Also, in assay [3] (10 mg/kg orally), the Osmolality came out at 517 mOsm/kg and the “Urine Volume” value is listed as 7.5 ml/4 hrs.

For `Cc1nc2c(s1)CCN(C(=O)c1ccc(NC(=O)c3ccc(Cl)cc3Cl)cc1)c1ccccc1-2` [Example 455, N-[4-(4,5-Dihydro-2-methyl-6H-thiazolo[5,4-d][1]-benzazepin-6-yl)carbonyl1phenyl]-2,4-dichlorobenzamide], in assay [1] (30 mg/kg i.v.), the “MAX % Inhibition” value was 46% and the “Time of max % inhibition” value was 120 min. The compound further displayed an inhibition at 10 µM in assay [2] of 88%. The compound also gave a negative logarithm of the IC50 (pIC50) in assay [2] (second part of Table V) of 5.96. Further, in assay [3] (10 mg/kg orally), the Osmolality was 420 mOsm/kg and the “Urine Volume” value is on record as 13.5 ml/4 hrs.

As to `Cc1ccccc1C(=O)Nc1ccc(C(=O)N2Cc3ccccc3Cc3ccccc32)cc1` [Example 2, N-[4-[(6,11-Dihydro-5H-dibenz[b,e]azepin-5-yl)carbonyl]phenyl]-2-methylbenzamide], in assay [1] (10 mg/kg p.o.), the “MAX % Inhibition” value is 65% and the “Time of max % inhibition” value came to 180 min. The compound also displayed an inhibition at 10 µM in assay [2] of 73%. The compound also gave a pIC50 in assay [2] (first part of Table V) of 5.54. Also, in assay [3] (3 mg/kg orally), the Osmolality is given as 1235 ± 162 mOsm/kg and the “Urine Volume” value is 2.9 ± 0.5 ml/4 hrs. In addition, in assay [3] (10 mg/kg orally), the Osmolality was 408 ± 34 mOsm/kg and the “Urine Volume” value amounted to 15.2 ± 2.4 ml/4 hrs. Also, in assay [3] (30 mg/kg orally), the Osmolality is listed as 401 ± 49 mOsm/kg and the “Urine Volume” value turned out to be 18.9 ± 1.7 ml/4 hrs.
